Data reported in paper PMC11206988, “Study on the Effect of Pharmaceutical Excipient PEG400 on the Pharmacokinetics of Baicalin in Cells Based on MRP2, MRP3, and BCRP Efflux Transporters” (Pharmaceutics, 2024).

What was measured:
MRP3 = target: T1, MRP3 (Homo sapiens, UniProt O15438); test: Transport of baicalin across MDCK II-MRP3 cell monolayer (transwell); type: in vitro ADME; conditions: human, pH 7.4, MDCK II-MRP3
T1 construct: host or cells: MDCK II
Experimental: The cells were inoculated at a density of 0.5 mL (1 × 10^5) in the upper layer of the transwell plate (AP side), and the culture was changed daily after the lower layer was added with 1.5 mL of complete medium without cells every other day. After 5–7 days of growth, the supernatant was aspirated and discarded, and the cell monolayer was rinsed twice with 37 °C Hank’s Balanced Salt Solution (HBSS, pH 7.4). The electrical resistance of the cell monolayer compartments was measured with a resistivity meter (TEER), and the integrity of the cell monolayer was monitored using TEER. The differentiation of MDCK II-WT, MDCK II-MRP2, MDCK II-MRP3, and MDCK II-BCRP cells was examined by determining sodium fluorescein permeability prior to transit experiments. This was done in order to determine the integrity of the cell monolayer. When the TEER value of the cell monolayer was greater than 150 Ω·cm^2 and the MDCK II-MRP2, MDCK II-MRP3, and MDCK II-BCRP sodium fluorescein permeability was less than 0.5 × 10^−6 cm/s or the MDCK II-WT sodium fluorescein permeability was less than 1 × 10^−6 cm/s, the cell monolayer was considered intact and suitable for transit experiments. TEER = (TEERcell monolayer − TEERblank) × Aarea(1) wherein TEERcell monolayer is the resistance of the cell monolayer read directly from the Millicell ERS-2 resistivity meter, and TEERblank is the resistance read by inserting a blank HBSS (no cells) only. Aarea is the surface area of the filter membrane, 1.12 cm^2.
In this experiment, a 100 μM baicalin solution (dissolved in HBSS) containing different concentrations of PEG400 (0.25%, 0.5%, and 1%) was employed as the test solution, while a solution without PEG400 was used as the blank test solution, which was added to AP or BL chambers, respectively. In the top to basolateral (AP-BL) transport experiment, the 0.5 mL sample added to the apical side (AP) was utilized as the supply room, and the HBSS preheated to 1.5 mL 37 °C was added to the basolateral (BL) as the receiving chamber. Conversely, in the basal low lateral to top (BL-AP) transport experiment, the 1.5 mL sample (dissolved in HBSS) was added to the BL side as the supply room, and the 0.5 mL preheated HBSS was added as a receiving room on the AP side. Once the aforementioned steps had been completed, the transwell was placed on a 37 °C thermostatic oscillator at 60 r/min, and 100 μL was withdrawn from the receiving cell or 10 μL from the supply chamber at 30, 60, 90, and 120 min, depending on the experiment, and replenished with an equal volume of blank 37 °C preheated HBSS. The samples were utilized to precipitate the proteins with 100 μL of methanol containing the internal standard for 10 min. After centrifugation at 16,000× g for 15 min at 4 °C, the supernatant was collected in a volume of 70 μL. The contents were determined by UPLC-MS/MS, and apparent permeability coefficients (PAPP) and efflux ratios (ER) were calculated.
The formulas for calculating Papp and ER of monolayer and monolayer are as follows:(2) Papp=dQ/dt/AC0 wherein dQ/dt (ng/mL·s) is the transit rate (ng/mL·s); A is the membrane area (1.12 cm^2); and C0 (ng/mL) is the initial concentration of the sample in the supply chamber. ER = PappBL-AP/PappAP-BL (3) wherein PappBL-AP is the apparent permeability coefficient when the BL is added to the sample, and PappAP-BL is the apparent permeability coefficient when the sample is added at the top side (AP).

[1] = tested on: MDCK II-WT, MDCK II-MRP2, MDCK II-BCRP and MDCK II-MRP3 cells; test: MTT cell proliferation assay; type: cell-based; conditions: experimentally selected concentrations
Excerpt: The effect of PEG400 on baicalin transport was investigated in MDCKII-WT, MDCKII-MRP2, MDCK II-BCRP, and MDCK II-MRP3 cell monolayer models. First, an MTT cell proliferation assay was used to evaluate the effects of baicalin as well as PEG400 concentration on […]. […] The results of the transporter experiments are shown in Figure 5 and Table 2, which indicate that the exocytosis ratio of MDCKII-WT cells in the control group for the transport of the substrate baicalin was 2.58 ± 0.27. This implies that the transport of baicalin through the cell membrane is mediated by a transporter. For the MDCK-WT cell model, the exocytosis ratios of baicalin decreased to 1.94 ± 0.27, 1.53 ± 0.14, and 1.19 ± 0.12, respectively, in response to low, medium, and high concentrations of PEG400. […] Consistent results were obtained in the MDCK II-MRP2 and MDCK II-BCRP cell models, where the percentage of baicalin efflux was reduced, from 2.45 ± 0.04 and 3.01 ± 0.05 to 2.22 ± 0.17, 1.08 ± 0.09, and 0.8 ± 0.04, respectively, and 1.59 ± 0.06, 1.02 ± 0.04, and 0.8 ± 0.02 in a concentration-dependent decrease. The results of the efflux ratio of baicalin in MDCK-WT, MDCK-MRP2, and MDCK-BCRP cell monolayers by 0.25%, 0.5%, and 1% PEG400 are shown in Figure 5f.
Figure 4 The effect diagram of cell vitality. (a,b) The effects of different concentrations of baicalin and PEG400 on the survival of MDCK II-WT cells. […]

T1 sequence (O15438 whole entry): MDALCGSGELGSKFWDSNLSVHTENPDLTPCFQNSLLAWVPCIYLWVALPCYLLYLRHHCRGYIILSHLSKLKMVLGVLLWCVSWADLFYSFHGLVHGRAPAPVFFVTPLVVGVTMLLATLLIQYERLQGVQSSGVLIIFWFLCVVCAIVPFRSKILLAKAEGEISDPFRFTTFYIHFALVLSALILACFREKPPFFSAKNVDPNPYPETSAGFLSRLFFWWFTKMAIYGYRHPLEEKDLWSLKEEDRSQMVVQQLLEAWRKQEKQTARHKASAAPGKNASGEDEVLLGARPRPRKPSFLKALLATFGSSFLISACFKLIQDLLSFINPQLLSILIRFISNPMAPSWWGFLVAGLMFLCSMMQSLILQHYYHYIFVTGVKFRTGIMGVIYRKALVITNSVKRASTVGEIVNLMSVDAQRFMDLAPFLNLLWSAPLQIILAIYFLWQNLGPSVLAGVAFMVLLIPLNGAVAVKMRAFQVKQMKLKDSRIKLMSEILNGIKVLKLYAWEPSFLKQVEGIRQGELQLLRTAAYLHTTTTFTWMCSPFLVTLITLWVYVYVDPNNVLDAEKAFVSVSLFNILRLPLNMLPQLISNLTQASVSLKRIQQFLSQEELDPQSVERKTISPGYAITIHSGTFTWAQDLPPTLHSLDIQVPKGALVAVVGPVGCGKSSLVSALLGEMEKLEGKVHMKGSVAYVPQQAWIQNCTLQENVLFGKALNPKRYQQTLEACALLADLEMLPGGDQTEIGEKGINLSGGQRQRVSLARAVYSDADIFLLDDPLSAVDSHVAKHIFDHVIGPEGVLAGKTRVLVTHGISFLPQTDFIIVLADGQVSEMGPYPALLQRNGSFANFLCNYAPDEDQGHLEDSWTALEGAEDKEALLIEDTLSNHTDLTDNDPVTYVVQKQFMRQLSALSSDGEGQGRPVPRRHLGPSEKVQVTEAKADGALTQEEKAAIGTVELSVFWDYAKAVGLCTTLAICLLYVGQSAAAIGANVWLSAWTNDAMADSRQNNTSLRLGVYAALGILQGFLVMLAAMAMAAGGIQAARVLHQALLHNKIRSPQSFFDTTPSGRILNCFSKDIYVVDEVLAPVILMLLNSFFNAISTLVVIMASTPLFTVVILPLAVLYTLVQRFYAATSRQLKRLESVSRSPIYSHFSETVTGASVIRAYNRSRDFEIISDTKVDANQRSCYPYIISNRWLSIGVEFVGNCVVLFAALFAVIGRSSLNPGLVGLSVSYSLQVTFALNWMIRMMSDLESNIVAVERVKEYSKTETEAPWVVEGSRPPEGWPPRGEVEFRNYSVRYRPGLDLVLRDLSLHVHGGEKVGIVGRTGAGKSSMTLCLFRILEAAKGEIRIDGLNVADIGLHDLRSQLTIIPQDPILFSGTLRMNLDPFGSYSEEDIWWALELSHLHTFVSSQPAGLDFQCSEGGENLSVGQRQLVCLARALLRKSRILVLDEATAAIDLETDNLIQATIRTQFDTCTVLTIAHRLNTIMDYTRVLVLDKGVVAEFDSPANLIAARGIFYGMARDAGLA

O=C(O)[C@H]1O[C@@H](Oc2cc3oc(-c4ccccc4)cc(=O)c3c(O)c2O)[C@H](O)[C@@H](O)[C@@H]1O [BG, Baicalein-7-O-β-D-glucuronide]
Papp A→B at 120 min, 100 μM (MRP3; 100 μM BG + 0.25% PEG400): 1.06 ± 0.16 ×10⁻⁶ cm/s | Papp B→A at 120 min, 100 μM (MRP3; 100 μM BG + 0.25% PEG400): 1.04 ± 0.08 ×10⁻⁶ cm/s | Papp A→B at 120 min, 100 μM (MRP3; 100 μM BG + 0.5% PEG400): 1.77 ± 0.2 ×10⁻⁶ cm/s | Papp B→A at 120 min, 100 μM (MRP3; 100 μM BG + 0.5% PEG400): 0.85 ± 0.1 ×10⁻⁶ cm/s | Papp A→B at 120 min, 100 μM (MRP3; 100 μM BG + 1% PEG400): 2.65 ± 0.44 ×10⁻⁶ cm/s | Papp B→A at 120 min, 100 μM (MRP3; 100 μM BG + 1% PEG400): 0.72 ± 0.16 ×10⁻⁶ cm/s | Papp A→B at 120 min, 100 μM (MRP3; 100 μM BG alone): 0.74 ± 0.1 ×10⁻⁶ cm/s | Papp B→A at 120 min, 100 μM (MRP3; 100 μM BG alone): 1.18 ± 0.08 ×10⁻⁶ cm/s | effect on cell proliferation (MTT) [1]: no significant effect on the proliferation
